Measured values: patent US6120997A, “Nucleic acid binders having an hydroxyamine motif” (The Scripps Research Institute, priority 1998, dated 2000)
Entries after “also recorded” stand apart in the source; their conditions may differ. *1 amine or outer side, *2 acyl side, *3 side chain or, on linkers, in order; H or OH if unused. Where a SMILES comes first, the peptide text is derived from it. Bridges are numbered along the chain shown (N, C = ends). [ ]: non-standard residue; d: D form. The star is where a group is joined. X2 = NC1=N[C@@H]([C@H](N[*:1])C(=O)[*:2])C[C@H](O)N1; ΔAla(Z-3-ureido) = NC(=O)N/C=C(\N)C(=O)O; X1 = NCC[C@@H](O)[C@H](N)CC(=O)*; Dap = NC[C@H](N)C(=O)O

Experiments:
[1] = tested on: bacterial protein synthesis; settings: cited from earlier work
[2] = molecular target: Neo16-bd; assay: SPR binding of aminoglycosides to Neo16-bd aptamer; settings: HBS-buffer; read-out: Kd, Neo16bd
Procedure: Conditions: 10 mM HEPES (pH 7.4), 0.1 mM EDTA and NaCl as indicated.
The binding of aminoglycosides to RNA is likely to involve substantial ionic contributions and therefore should be strongly influenced by competing buffer ions. […] We studied the salt dependence of neomycin B binding to RBE3, RBE3-neg and Neo16-bd (FIG. 14) by varying the concentration of NaCl included in the injection buffer (10 mM HEPES, pH 7.4, 0.1 mM EDTA). […] This neomycin binding motif was obtained by in vitro selection under conditions of high ionic strength.
To further improve our understanding of specific aminoglycoside recognition, we have also included an artificial aminoglycoside receptor that was evolved in vitro to recognize an aminoglycoside. A number of RNA aptamers for small molecules have been reported in recent years. Among them are aptamers that recognize the aminoglycosides tobramycin, lividomycin and kanamycin.
For comparison, the corresponding values for AS-wt are also included.
(§1) General Procedures for SPR Binding Studies done in Example 5. Samples were prepared by serial dilutions from stock solutions in RNase free microfuge tubes (Ambion) and were centrifuged at 14000 rpm for degassing. Unless otherwise noted, all binding studies were carried out using HBS buffer (Pharmacia Biosensor AB) which was used as obtained. All procedures for binding studies were automated as methods using repetitive cycles of sample injection and regeneration. Typically, buffer was injected in the first two cycles to establish a stable baseline value. Samples were injected at a flowrate of […] using either the KINJECT command. All aminoglycoside samples were injected from autoclaved 7 mm plastic vials that were capped with pierceable plastic crimp caps. To minimize carry over, samples were injected in order of increasing concentration. The running buffer was identical to the injection buffer.

[3] = tested on: AS-wt; assay: SPR binding of aminoglycosides to decoding region A-site model AS-wt; set-up: species or system E. coli; settings: for RNA binding, affinity or specificity for AS-wt (in words): Example 4
Procedure: The RNA binding properties of 100-800 were analyzed using a surface plasmon resonance based assay that was recently developed in these laboratories. This assay allows the determination of both affinity and specificity of small molecule-RNA interactions. For the analysis, the compounds were injected over a matrix containing RNA that was immobilized through a biotin tag and the equilibrium binding values were recorded at various concentrations.
Non-linear curve fitting was then used to determine the values of the dissociation constants (KD). The specificity of binding, i.e. the ability to discriminate between different RNA sequences was evaluated by comparing the binding to the target sequence (AS-wt) and the negative control (AS-U1495A). The ratio of KD(AS-U1495A) to KD(AS-wt) was taken to be a representation of the specificity of the binding event.
For the quantitative measurement of aminoglycoside binding to these sequences, we utilized our recently developed SPR-based assay. Biotinylated derivatives of all sequences were prepared by in vitro transcription in the presence of guanosine 5'-monophosphorothioate followed by alkylation with a biotin iodoacetamide derivative. The RNA conjugates were then immobilized onto streptavidin coated SPR-sensorchips for analysis.
In the same manner as illustrated for paromomycin, a panel of aminoglycosides was screened and the results are compiled in the table of FIGS. 46 and 47. In addition to the naturally occuring aminoglycoside antibiotics, some of the compounds in FIG. 46 are synthetically derived, unnatural aminoglycosides. The number of independent determinations for each dissociation constant ranged from 1-3. […] All data were recorded under near physiological salt conditions (HBS-buffer: 150 mM NaCl, 10 mM HEPES, pH7.4, 3.4 mM EDTA) unless noted otherwise. Data points were taken at concentrations ranging from […]. Below this concentration range, surface transport limitations prevent the attainment of equilibrium.
Plasmon resonance and antimicrobial testing for Example 4. Synthesis of the biotinylated RNA and surface plasmon resonance detected binding experiments were performed as described vida supra. Solution conditions: 150 mM NaCl, 10 mM HEPES (pH 7.4), 3.4 mM EDTA. KD determination from the binding curves.
The fitting routine of the program kaleidagraph was used for all calculations. The starting values for a and b were set to 1 and 0 respectively. The number of KD values used in the fitting was adjusted depending on the observed range of equivalents bound but generally varied from 3 to 4.
as §1, with “buffer. Expected values for the equilibrium response of one equivalent of analyte were calculated from the relative molecular weight of the analyte and the immobilized RNA ligand in each flowcells and adjusted with a correction factor of 0.76 which arises from the different molar refractive indices of RNA and the analyte. […]” for “buffer.”

[4] = tested on: Escherichia coli (ATCC 25922); assay: minimum inhibitory concentration, broth dilution technique; type: cell-based; settings: E. coli, liquid culture
From the text: We reasoned that this modification would provide the cleanest test for probing the ionic contribution, since hydrogen bond donor abilities, electronegativity and steric demand are similar for both functional groups. In order to learn how well the model system correlates with in vivo activity, we checked the new compounds for antibacterial activity against three bacterial strains using the disc method (Kirby-Bauer technique). The minimum inhibitory concentrations (MICs) of the compounds were then determined using the broth dilution technique. For antibiotic testing protocols, see: (a) Disk testing protocols: Phillips, I.; Williams, D., in Laboratory Methods in Antimicrobial Chemotherapy, Garrod, L. (ed.) Churchill Livingstone Press: Edinburgh, 1978, pp. 3-30. (b) MIC determination: Waterworth, P. M., in Laboratory Methods in Antimicrobial Chemotherapy, Garrod, L. (ed.) Churchill Livingstone Press: Edinburgh, 1978, pp. 31-40; Barry, A. L. The Antimicrobic Susceptibility Test: Principles and Practice, Lea and Febiger: Philadelphia (1976). (c) Standards: Lorian, V., Antibiotics in Laboratory Medicine (2nd. ed.), Williams and Wilkins: Baltimore, 1986.
FIG. 39A gives the zone diameters measured for the three bacterial strains. The zone diameters measured for the strains with known antibiotics are well within the accepted limits. […] It is worth noting that some testing protocols recommend overnight growth of the cultures, rather than the minimum time required to obtain good growth of the control. MIC values were tested for several of the control antibiotics using overnight growth, and the MIC values observed were 2-4× greater than those observed for 4-6 hour growth.
Minimal Inhibitory Concentration (MIC) testing. E. coli ATCC 25922 was grown in Mueller-Hinton broth (cation-adjusted, BBL Microbiology Systems) to an optical density of approx. 0.5 (absorbance read at 600 nm), then diluted to an OD600 of 0.1. Samples of antibiotic were prepared in Mueller-Hinton broth, typically a series of 2-fold dilutions from […]. […] The absorbance of each sample was read (1=600 nm), and MIC was considered to be the lowest antibiotic concentration at which the absorbance was less than 1% of the no-antibiotic control.

[5] = tested on: wt-RRE-II; assay: SPR binding of aminoglycosides to wt-RRE-II; set-up: species or system HIV-1; settings: comparison of aminoglycosides
Procedure: FIGS. 9A and 9B illustrate neomycin B binding to RBE3, RBE3-neg and wt-RRE-II. (A) Semilogarithmic plot. […] Conditions: pH 7.0, 10 mM HEPES, 150 mM NaCl, 0.1 mM EDTA, […].
FIGS. 10A and 10B illustrate paromomycin binding to RBE3, RBE3-neg and wt-RRE-II. (A) Semilogarithmic plot; the dashed line indicates the binding of neomycin B to wt-RRE-II for comparison (B) Scatchard plot. […] Conditions: pH 7.0, 10 mM HEPES, 150 mM NaCl, 0.1 mM EDTA, […].
FIG. 11 illustrates the kinetic stability of wt-RRE-II complexes with neomycin B vs. paromomycin. […] Data points were taken after 1 min of dissociation.
Binding of the aminoglycoside to all three RNA oligonucleotides is observed starting in the low nanomolar concentration range and is non-saturable over the concentration range investigated. […] The high degree of non-specific binding is not surprising considering that aminoglycosides are highly charged polycations that tend to associate nonspecifically with the polyanionic phosphate backbone of RNA. […] Data points corresponding to 0.5 or more equivalents of neomycin B represent equilibrium values and can be analyzed with respect to stoichiometry and affinity of aminoglycoside binding. […] Both sequences bind one molecule of neomycin B with submicromolar affinity followed by weaker association with several additional equivalents of the antibiotic.
Samples were prepared by serial dilutions from stock solutions in RNase free microfuge tubes (Ambion) and were centrifuged at 14000 rpm for degassing. Buffers were filtered through sterile 0.2 &m nylon membranes (Nalgene) under vacuum, except for BIA certified HBS buffer (Pharmacia Biosensor AB) which was used as obtained. All procedures for binding studies were automated as methods using repetitive cycles of sample injection and regeneration. Typically, buffer was injected in the first two cycles to establish a stable baseline value. Samples were injected at a flowrate of 5-10 &L/min using either the KINJECT or the COINJECT command. All aminoglycoside and Rev27 samples were injected from autoclaved 7 mm plastic vials that were capped with pierceable plastic crimp caps. To minimize carry over, samples were injected in order of increasing concentration. The running buffer was identical to the injection buffer, except for the salt dependence study where a single running buffer was used for all injections. Expected values for the equilibrium response of one equivalent of analyte were calculated from the relative molecular weight of the analyte and the immobilized RNA ligand in each flowcells. These values were adjusted by multiplying with a factor of 0.8 or 0.57 for Rev27 or aminoglycosides respectively. These factors arise from the different molar refractive indices of RNA and the analyte and were determined from the Scatchard plot x-axis intercepts of the 1:1 binding isotherms for Rev27 and neomycin B.
Binding Studies with Aminoglycosides.
Neomycin B sulfate (Fluka) was converted to the free base by passing it through Amberlite IRA 400 (OH-- form) and purified by ion exchange chromatography on Dowex 1-X2 100 to remove neomycin C; the purity of neomycin B was verified by NMR in D2 O. Paromomycin sulfate was obtained from Sigma and used as received. Samples were prepared by dilution from 10 mM stock solutions in injection buffer (10 mM HEPES, pH 7.4, 150 mM NaCl, 3.4 mM EDTA). Data points were taken after an association phase of 30 min. A 2 min regeneration pulse of 150 mM Na2 SO4 in injection buffer was used between injections. […]

[6] = NMR dilution experiments of 1:1 salt complexes in DMSO-d6 (phosphodiester recognition); type: binding
Procedure: [a] NMR dilution experiments with the preformed 1:1 salt complexes were performed in DMSO-d6 at […]; [b] calculated maximum shift at full complexation in ppm.
In order to determine binding constants we prepared defined 1:1 salt complexes and measured their dissociation upon stepwise dilution in [D6 ]DMSO by following the shifts of NH and OH resonances. The chemical shift values of the totally uncomplexed state (o) and the fully complexed state (n) and the stability constant Ka were subsequently determined by curve fitting. […] In all cases, data could be fitted to a 1:1 binding isotherm. […] This order mirrors the order of binding affinities and is consistent with the interpretation that differential involvement of the hydroxyl group in hydrogen bonding provides for the energetic differences in complexation.

In the case of `NCC[C@@H](O)[C@H](N)CC(=O)N[C@H]1CNC(=O)[C@H]([C@H]2C[C@H](O)NC(N)=N2)NC(=O)/C(=C/NC(N)=O)NC(=O)[C@H](CO)NC(=O)[C@H](CO)NC1=O` [Tuberactinomycin A] (X1-[Dap]SS[ΔAla(Z-3-ureido)][X2]; lactam 1-C), the “effect on bacterial protein synthesis (in words)” value [1] is given as “inhibits both initiation and elongation steps of bacterial protein synthesis”.
For `CN(CC(=O)O)NC(=O)C[C@H](N)C[C@@H](O)CN` [Negamycin], the “effect on bacterial protein synthesis (in words)” value [1] is listed as “induces miscoding during translation”.
In the case of `NCCO[C@H]1[C@@H](O)[C@H](O[C@@H]2[C@@H](O)[C@H](N)C[C@H](N)[C@H]2O[C@H]2O[C@H](CN)[C@@H](O)[C@H](O)[C@H]2N)O[C@@H]1CO` [Compound 500, 3"-O-Ethyl-2-amino ribostamycin], the Kd [2] is reported as less than 10 nM, the “RNA binding, affinity or specificity for AS-wt (in words)” value (“RNA binding, affinity or specificity” below) [3] is reported as “binding affinity goes up by an order of magnitude but specificity is unaffected; also recorded: significantly lower binding affinities toward the AS wt RNA than neomycin” and the “antibacterial activity / MIC compared with neomycin B (in words)” value [4] is reported as “very nearly the same anti microbial activity as neomycin B”.
For `[H]/N=C(/N)N[C@H]1[C@H](O)[C@@H](O)[C@H](O[C@@H]2O[C@@H](C)[C@](O)(C=O)[C@H]2O[C@@H]2O[C@@H](CO)[C@H](O)[C@@H](O)[C@@H]2NC)[C@@H](N/C(N)=N\[H])[C@@H]1O` [Streptomycin], the “relative binding affinity for wt-RRE-II (in words)” value [5] was “weakest”, the “RNA binding, affinity or specificity” value [3] was “much reduced binding affinity and no specificity” and the “specificity for AS-wt over negative controls (in words)” value ([3]; Example 5, HBS-buffer) was “does not show any specificity for AS-wt”.
With `CO[C@H]1O[C@H](CN)[C@@H](O)[C@H](OCc2ccccc2)[C@H]1OCc1ccccc1` [Compound 2] the “dimethylphosphate binding affinity (in words)” value [6] was “higher affinity than bicyclic guanidine 6” and the “selectivity for dimethylphosphate over chloride” value [6] was 10 fold.
With `NCCCNCCO[C@H]1[C@@H](O)[C@H](O[C@@H]2[C@@H](O)[C@H](N)C[C@H](N)[C@H]2O[C@H]2O[C@H](CN)[C@@H](O)[C@H](O)[C@H]2N)O[C@@H]1CO` [Compound 600, 3"-O-2-N-(3-propylamino)-ethylamino ribostamycin] the Kd [2] was less than 10 nM, the “RNA binding, affinity or specificity” value [3] was “diminishing returns on the affinity without affecting the specificity; also recorded: significantly lower binding affinities toward the AS wt RNA than neomycin” and the “antibacterial activity / MIC compared with neomycin B (in words)” value [4] was “very nearly the same anti microbial activity as neomycin B”.
